Data published in patent publication US20240156140A1, “AMIDE COMPOUNDS AND THEIR USE AS FLAVOR MODIFIERS” (Firmenich Incorporated, priority 2021, published 2024).
pEC50: −log10 of the molar value.

Each molecule was assayed against T1, T1R umami taste receptor (Homo sapiens, UniProt Q7RTX0+Q7RTX1) (assay: in vitro cell-based assay, enhancement of MSG binding). Details: cells that express the T1R umami taste receptor.
T1 sequence (Q7RTX1 21-841): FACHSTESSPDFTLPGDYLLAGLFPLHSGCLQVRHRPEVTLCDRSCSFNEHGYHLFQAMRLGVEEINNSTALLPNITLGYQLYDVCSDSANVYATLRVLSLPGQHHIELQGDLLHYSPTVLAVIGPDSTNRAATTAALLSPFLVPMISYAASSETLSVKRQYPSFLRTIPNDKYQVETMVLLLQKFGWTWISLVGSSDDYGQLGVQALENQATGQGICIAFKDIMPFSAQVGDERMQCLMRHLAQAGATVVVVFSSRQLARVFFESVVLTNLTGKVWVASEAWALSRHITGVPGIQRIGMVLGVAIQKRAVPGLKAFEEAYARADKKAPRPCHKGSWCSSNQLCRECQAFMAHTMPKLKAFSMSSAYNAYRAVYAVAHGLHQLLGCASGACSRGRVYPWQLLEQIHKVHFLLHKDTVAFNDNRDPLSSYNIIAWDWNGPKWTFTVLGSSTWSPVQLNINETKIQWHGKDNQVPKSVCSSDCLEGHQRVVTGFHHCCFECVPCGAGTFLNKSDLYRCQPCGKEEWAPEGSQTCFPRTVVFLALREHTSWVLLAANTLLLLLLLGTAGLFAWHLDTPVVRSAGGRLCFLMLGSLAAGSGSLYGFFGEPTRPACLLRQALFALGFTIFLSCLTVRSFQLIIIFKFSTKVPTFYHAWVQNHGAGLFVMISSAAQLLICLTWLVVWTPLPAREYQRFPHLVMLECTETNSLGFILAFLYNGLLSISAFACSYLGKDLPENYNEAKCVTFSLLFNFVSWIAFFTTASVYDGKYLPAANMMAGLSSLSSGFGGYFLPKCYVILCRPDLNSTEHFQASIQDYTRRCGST
T1 sequence (Q7RTX0 21-852): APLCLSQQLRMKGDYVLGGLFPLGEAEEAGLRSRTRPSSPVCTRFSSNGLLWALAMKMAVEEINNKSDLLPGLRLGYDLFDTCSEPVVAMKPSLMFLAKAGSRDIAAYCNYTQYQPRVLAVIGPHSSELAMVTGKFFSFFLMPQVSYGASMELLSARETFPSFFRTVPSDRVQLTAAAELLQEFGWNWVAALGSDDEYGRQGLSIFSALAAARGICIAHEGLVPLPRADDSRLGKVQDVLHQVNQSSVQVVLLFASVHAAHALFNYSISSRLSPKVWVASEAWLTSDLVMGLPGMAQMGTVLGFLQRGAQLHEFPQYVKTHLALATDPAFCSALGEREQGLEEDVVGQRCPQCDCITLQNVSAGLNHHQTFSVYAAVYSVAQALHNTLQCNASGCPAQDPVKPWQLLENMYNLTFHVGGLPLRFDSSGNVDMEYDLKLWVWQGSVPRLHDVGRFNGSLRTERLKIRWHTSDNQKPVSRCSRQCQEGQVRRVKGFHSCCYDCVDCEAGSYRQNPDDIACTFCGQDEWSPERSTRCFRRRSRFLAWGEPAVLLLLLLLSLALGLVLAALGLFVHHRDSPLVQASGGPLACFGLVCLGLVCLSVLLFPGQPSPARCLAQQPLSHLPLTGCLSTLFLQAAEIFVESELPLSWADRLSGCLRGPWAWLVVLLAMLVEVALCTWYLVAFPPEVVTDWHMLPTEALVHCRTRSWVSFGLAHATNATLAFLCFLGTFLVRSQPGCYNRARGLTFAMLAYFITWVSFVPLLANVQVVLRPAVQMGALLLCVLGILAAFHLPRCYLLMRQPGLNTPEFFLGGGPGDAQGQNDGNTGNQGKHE
Experimental: Each of the compounds set forth in Table 2 were synthesized according to one of the general procedures set forth above in Example 1 or 2. Thereafter, the compounds were tested in an in vitro cell-based assay having cells that express the T1R umami taste receptor. Dose-binding curves were recorded and the EC50 was determined for enhancement of MSG binding. Table 2 sets forth the calculated EC50 values for certain tested compounds.
`O=C(NCCC[C@H](NC(=O)c1ccccc1)C(=O)O)c1ccccc1` [Compound 101] was tested, and the pEC50 was < 4.30.
`COC(=O)[C@H](CCCNC(=O)c1ccccc1)NC(=O)c1ccccc1` [Compound 102] gave a pEC50 of 4.52.
Work on `CCOC(=O)[C@H](CCCNC(=O)c1ccccc1)NC(=O)c1ccccc1` [Compound 103] yielded a pEC50 of 5.70.
`CCOC(=O)[C@H](CCCNC(=O)c1ccc(C)c(C)c1)NC(=O)c1ccc(C)c(C)c1` [Compound 104] showed a pEC50 of 4.85.
With `CCOC(=O)[C@H](CCCNC(=O)c1ccc2c(c1)OCO2)NC(=O)c1ccc2c(c1)OCO2` [Compound 105] the pEC50 was 4.46.
`C/C=C(\C)C(=O)NCCC[C@H](NC(=O)c1ccccc1)C(=O)OC` [Compound 106] was tested, and the pEC50 was 5.46.
Work on `C/C=C(\C)C(=O)NCCC[C@H](NC(=O)c1ccccc1)C(=O)OCC` [Compound 107] yielded a pEC50 of 5.10.
In the case of `C/C=C(\C)C(=O)NCCC[C@H](NC(=O)c1ccc(C)cc1)C(=O)OC` [Compound 108], the pEC50 was 5.60.
For `C/C=C(\C)C(=O)NCCC[C@H](NC(=O)c1ccc(C)cc1)C(=O)OCC` [Compound 109], the pEC50 was 5.82.
For `C/C=C(\C)C(=O)NCCC[C@H](NC(=O)c1ccc(OC)cc1)C(=O)OC` [Compound 110], the pEC50 was 6.15.
For `C/C=C(\C)C(=O)NCCC[C@H](NC(=O)c1ccc(OC)cc1)C(=O)OCC` [Compound 111], the pEC50 was 6.40.
For `C/C=C(\C)C(=O)NCCC[C@H](NC(=O)c1ccc(C)c(C)c1)C(=O)OC` [Compound 112], the pEC50 was > 7.00.
Work on `C/C=C(\C)C(=O)NCCC[C@H](NC(=O)c1ccc(C)c(C)c1)C(=O)OCC` [Compound 113] yielded a pEC50 of 6.30.
`C/C=C(\C)C(=O)NCCC[C@H](NC(=O)c1cc(C)c(C)c(C)c1)C(=O)OC` [Compound 114] was tested, and the pEC50 was 6.40.
`C/C=C(\C)C(=O)NCCC[C@H](NC(=O)c1cc(C)c(C)c(C)c1)C(=O)OCC` [Compound 115] gave a pEC50 of 7.40.
`C/C=C(\C)C(=O)NCCC[C@H](NC(=O)c1ccc2c(c1)OCO2)C(=O)OCC` [Compound 121] showed a pEC50 of 6.30.
Molecule `C/C=C(\C)C(=O)NCCC[C@H](NC(=O)/C=C/c1ccccc1)C(=O)OC` [Compound 122] has a pEC50 of 6.70.
`C/C=C(\C)C(=O)NCCC[C@H](NC(=O)/C=C/c1ccccc1)C(=O)OCC` [Compound 123] was tested, and the pEC50 was 6.22.
With `C/C=C(\C)C(=O)NCCC[C@H](NC(=O)/C=C/c1ccccc1OC)C(=O)OC` [Compound 124] the pEC50 was 6.30.
In the case of `C/C=C(\C)C(=O)NCCC[C@H](NC(=O)/C=C/c1ccc(OC)cc1)C(=O)OC` [Compound 128], the pEC50 was 6.19.
For `C/C=C(\C)C(=O)NCCC[C@H](NC(=O)/C=C/c1ccc(OC)cc1)C(=O)OCC` [Compound 129], the pEC50 was 7.22.
`C/C=C(\C)C(=O)NCCC[C@H](NC(=O)/C=C/c1ccc(OC)cc1OC)C(=O)OC` [Compound 132] gave a pEC50 of 7.00.
`C/C=C(\C)C(=O)NCCC[C@H](NC(=O)/C=C/c1ccc(OC)cc1OC)C(=O)OCC` [Compound 133] gave a pEC50 of 6.40.
